“Also recorded” adds a separate entry of the source.
Columns and labels:
Format in all cases: cell-based
[1] = tested on: mitochondria in HeLa cells; experiment: Mitochondrial localisation and membrane-potential dependence in HeLa cells (oligomycin / CCCP treatment, confocal imaging)
Protocol: (§1) Mitochondrial stains were diluted to working concentrations from 10 mM DMSO stock solutions into DMEM containing 10% FCS and 25 mM HEPES. Solutions were incubated with HeLa cells at 37° C. in a humidified 5% CO2 incubator for the indicated period of time prior to imaging, typically without a washout step (though a washout step can be performed). A Nikon A1R TiE confocal laser scanning microscope equipped with environmental chamber (37° C.) was used for live-cell imaging, employing 561 nm and 640 nm diode laser lines, a Nikon A1R Plan APO VC 60x Oil lens (NA 1.4), pinhole at 1AU. The images were acquired using NIS Elements software and processed using ImageJ.

[2] = tested on: mitochondria in HeLa cells; experiment: Time-course live-cell confocal imaging of stained HeLa cells (photostability, localisation, phototoxicity); details: 50 nM for 60 mins; for (photo)-toxicity during prolonged imaging / localisation at mitochondria over time / photostability / signal over time: live imaging every 5 seconds for 240 frames
Protocol: Within this time frame, COMPOUND 1 intensity drops by ˜25% during the imaging period compared to the comparator which drops by 65%.
Data from two samples of COMPOUND 3,measured at different timepoints is overlaid in the graph (right).
as §1

[3] = tested on: HeLa cells; experiment: Optimization of stain concentration for imaging HeLa cells; details: 50 nM, 60 mins, no washout, same laser power/settings
Protocol: HeLa cells were incubated with the comparator or COMPOUND 1 for 60 mins at indicated doses and imaged at the same laser power/settings. NOTE: no washout step to remove unbound comparator was performed (manufacturer recommends this) to enable direct comparison with COMPOUND 1. Some toxicity is observed with 100 nM of comparator.
as §1

SMILES | effect of de-polarizing the mitochondrial membrane with CCCP on stain ([1]; HeLa cells, 50 nM stain for 60 mins, then CCCP 10 μM up to 60 minutes) | effect of hyper-polarizing the mitochondrial membrane with oligomycin on stain ([1]; HeLa cells, 50 nM stain for 60 mins, then Oligomycin 5 μg/mL up to 60 minutes) | localisation of stain ([1]; mitochondrial stain, due to charge potential across the mitochondrial membrane) | (photo)-toxicity during prolonged imaging [2] | localisation at mitochondria over time [2] | drop of normalized intensity during the imaging period ([2]; live imaging every 5 seconds for 240 frames (20 minutes), 100% = maximum intensity peak) [%] | imaging result [3] | photostability / signal over time [2]
C[Si]1(C)C2=CC(=[N+]3CCC3)C=CC2=C(c2ccccc2)c2ccc(N3CCC3)cc21 [COMPOUND 1, 1-(7-(azetidin-1-yl)-5,5-dimethyl-10-phenyldibenzo[b,e]silin-3 (5H)-ylidene)azetidin-1-ium chloride] | dispersion | accumulation | localizes specifically to the mitochondria | no apparent toxicity | remains clearly localized at the mitochondria; also recorded: appears to mark the mitochondria more clearly than COMPOUND 2 over time | ~25 | excellent results | –
Cc1ccccc1-c1c2ccc(=[N+]3CCC3)cc-2oc2cc(N3CCC3)ccc12 [COMPOUND 3, 1-(6-(azetidin-1-yl)-9-(o-tolyl)-3H-xanthen-3-ylidene)azetidin-1-ium] | – | – | – | – | higher non-specific cytoplasmic background (and lower mitochondrial labelling) | – | – | retention of signal during the first 10 mins of imaging, but then the signal rapidly drops
c1ccc(-c2c3ccc(=[N+]4CCC4)cc-3oc3cc(N4CCC4)ccc23)cc1 [COMPOUND 4, 1-(6-(azetidin-1-yl)-9-phenyl-3H-xanthen-3-ylidene)azetidin-1-ium chloride] | – | – | – | no observable phototoxicity effects | remain faithfully localized to mitochondria over the entire imaging period | – | – | higher signal retention over time than COMPOUND 3

— patent publication US20240385087A1, “METHOD FOR STAINING MITOCHONDRIA” (TOCRIS COOKSON LIMITED, priority 2021, published 2024)
